The results in this text go back to patent US9504248B2, “Antimicrobial composition” (Rohm and Haas Company, priority 2011, dated 2016).

In brackets after ≈: the same amount, converted by molar mass. Read-outs that look alike come from different tables or passages of the source.

Common to all, as to assay type: cell-based
The test system of experiment [1] is Escherichia coli (10536 strain). Nature of the experiment: 15 second contact suspension kill assay (Example 1 protocol, also Example 3). The settings on record: for MBC: Escherichia coli, 15 s; for NMBS, mean bacterial survival: 15 s contact, active concentrations (% w/v) as defined per example, 0 = complete kill, mean of triplicate. The source says: The efficacies of antimicrobial agents can be usefully compared by determining the Minimum Biocidal Concentration (MBC). The MBC is defined as the lowest absolute concentration of the particular active that provides complete kill (zero bacterial growth). The differing behaviours of inhibitory antimicrobtals in Isolation and mixtures have been widely explored using the concept of the Fractional Concentration and Fractional Inhibitory Concentration (FIC). See for instance J R W Lambert and R Lambert, J. Appl. Microblol 95, 734 (2003); T. Jadavji. C G Prober and R Cheung. Antimicrobial Agents and Chemotherapy 26, 91 (1984), and WO 2004/006876. These parameters can be defined as follows:
[formula] [formula] By analogy the Fractional Biocidal Concentration (FBC) is given by:
Antimicrobial efficacy is tested against a representative pathogenic bacterial organism, Gram negative Escherichia coli. Concentrations of actives are expressed in terms of the percentage weight/volume (% w/v) throughout Example 1.
An overnight culture of Escherichia coli (10536 strain) was prepared in 50 ml total volume of TSB broth, grown for ca. 18 hrs at 37° C. and shaken at 150 rpm. 1 ml of this overnight E. coli culture was transferred to 50 ml of fresh TSB broth and incubated at 37° C. at 150 rpm for ca. 4 hours. This culture was separated into equal volumes and centrifuged at 4000 rpm for 15 minutes, washed with sterile saline (0.85% NaCl), centrifuged once more and re-suspended in saline to give a final concentration of 0.8 OD620 equivalent to about 10^8 cells per milliliter for this particular organism. Here, OD620 indicates the absorbance of a sample in a cuvette of 1.0 cm path length at a wavelength of 620 nm. This bacterial stock was used for assaying against antimicrobial actives (in triplicate).
The following assay describes the testing of 8 materials using 6 dilutions across half of a 96-well micro titre plate (MTP). Using this approach it is possible to assay 16 actives (without replicates) with one full dilution plate, replicating this set up in two halves of the plate columns, 1-6 and 7-12.
1M solutions of the test actives were prepared in dimethylsulphoxide (DMSO).
Aliquots (270 μl) of the materials at 1.11 times the final concentration were dispensed into the wells of the MTP along one column (A1-H1). This MTP was labelled as the “Screening plate”.
In another MTP, labelled as the “Dilution plate”, 270 μl of D/E neutralising solution from DIFCO Composition was added to column 1. The composition of the neutralising solution was as follows: pancreatic digest of casein, 5.0 g/L; Yeast Extract, 2.5 g/L; Dextrose, 10 g/L, sodium thioglycollate, 1.0 g/L, sodium thiosulphate, 6.0 g/L; sodium bisulphite, 2.5 g/L; Polysorbate 80, 5.0 g/L; lecithin 7.0 g/L; bromocresol purple, 0.02 g/L with a pH in the range 7.6±0.2.
270 μl of tryptone diluent solution was added to all the remaining wells of the Dilution MTP (columns 2-6).
Bacterial stock (30 μl) was then added to the prepared 270 μl of the solution of actives in the Screening Plate and mixed, using a multichannel pipette with 8 tips to aspirate and dispense the same volume of bacterial stock in parallel to 8 wells in rows A-H. After a contact time of 15 seconds, the mixtures were quenched by transferring 30 μl volumes of the mixtures into the 270 μl D/E neutralising solution in the prepared dilution plate, using aspiration to mix. After exactly 5 minutes in the DIE neutralising solution, 30 μl volumes were transferred from column 1 to column 2 of the Dilution MTP and mixed, before transferring further 30 μl volumes from column 2 into column 3. This process was repeated serially diluting the bacteria across the plate to column 6.
30 μl volumes from each well in the Dilution MTP were transferred onto pre-labelled segment of Tryptone Soya Agar (TSA) plates starting from the lowest bacterial concentration (highest dilution, column 6) to the highest bacterial concentration (column 1).

For experiment [2], the system named is Escherichia coli (E. coli - ATCC #10536). Nature of the experiment: Automated assessment of efficacy in surfactant base, 15 seconds exposure, OD450/OD590 readout (Example 4). The conditions noted are these: for antimicrobial action in combination with terpineol in the presence of surfactant (in words): cocoyl glycinate and lauroamphoacetate; for MBC: Escherichia coli, ATCC10536, 15 s, in 2.85% sodium cocoyl glycinate + 1.85% sodium lauroamphoacetate solution at pH 10, 15 s. The procedure: In these examples, the efficacy of combinations of monosubstituted phenols and terpineol were tested in a surfactant cleansing formulation comprising 2.85% sodium cocoyl glycinate and 1.85% sodium lauroamphoacetate. This corresponds to a 50% in use dilution with water of a typical neat formulation containing 5.7% cocoyl glycinate and 3.7% % sodium lauroamphoacetate during hand washing. Solutions were prepared such that the concentrations of the surfactant components and test actives were 1.1 times the final desired concentration in order to allow for dilution with the bacterial inoculum in the test. The solutions were manually adjusted to pH 10.0 by dropwise addition of sodium hydroxide solution, as measured with a pH meter at ambient temperature. Solutions of the monosubstituted phenols and/or terpineols were prepared at a maximum of 24 hours before testing. The same terpineol was used as in Example 1.
The efficacy of the combinations of the present invention was determined against the same bacterium as in Example 1, Escherichia coli (E. coli—ATCC #10536), at a concentration of approximately 1×10^8 bacteria per mL.
Tests were conducted using standard microtiter plate assays using an automated liquid handling system. 270 μl of the surfactant test solution was pipetted into each well of the microtitre plate (Nunc F Gamma Irradiated 96F untreated microtitre plates of clear polystyrene) and 30 μl of the bacterial suspension was then added. After exactly 15 seconds of bacterial exposure, a 30 μl volume of bacterial cells was withdrawn and transferred to 270 μl of D/E quench solution. After 5 minutes in the D/E quench, the optical density (OD) was measured for each plate in turn at two specific wavelengths (450 nm and 590 nm). These provide a dual check of antimicrobial activity, as the OD450 reading is specific for the yellow colour of D/E quench when bacterial growth is observed, whereas OD590 is specific for the initial purple colour of the D/E quench which is retained if no bacterial growth is observed. After the time zero OD measurements, plates were then incubated at 37° C. overnight (16 hours) before repeating the OD measurements. Delta OD values were calculated by subtracting […] at time=16 hours. Bacterial growth is observed as an increase in OD450 and a decrease in OD590. To identify antibacterially efficacious systems (those preventing appreciable bacterial growth after incubation), the following threshold changes in OD readings have been adopted: if (1). OD450 increases by less than 0.2 absorbance unit (AU) on incubation and (2). OD590 decreases by less than 0.35 AU on incubation. Conversely, where OD450 increases by more than […] after incubation, corresponding to a colour shift from purple to yellow, the test system allows bacterial growth and is not deemed efficacious. Four replicate measurements in the same plate have been made for each test system. The number of replicate wells showing either bacterial growth or no growth is also readily assessed by eye by following the colour change. Thymol and terpineol were tested both alone and in combination for comparison purposes.
In some selected cases, the combinations were also tested at the weight ratio 1:1.
The surfactants used are not themselves antimicrobially active against E. coli at the concentrations employed as shown by the results of Ex. (4:1) in Table 24. Thus, any antimicrobial efficacy can be ascribed to the monosubstituted phenols and/or terpineol. Table 25 presents MBC-values determined similarly as described for Example 1.

Experiment [3] shares this test system. Nature of the experiment: High resolution MBC synergy assay in phosphate buffer containing 35% dipropylene glycol, 15 seconds (Example 2). The settings on record: 15 s, complete kill; phosphate buffer with 35% DPG. Here is the method:
In this Example, a wide range of combinations of chemicals was tested by conducting high resolution MBC assays of monosubstituted phenols in the presence of various concentrations of terpineol. […] High resolution MBCs were determined by adding varying amounts of microbicide to one column of a microtiter plate and doing subsequent […] dilutions using an automated liquid handling system to obtain a series of endpoints ranging from 0.002% to 1% of the test compound. The MBC plate was inoculated one column at a time with the test microorganism. An aliquot of the inoculated well was transferred at 15 seconds to a plate containing a neutralizing agent (D/E Neutralizing Broth), mixed and held for 5 minutes before being transferred to a growth plate containing trypticase soy broth (TSB). The TSB plate was incubated at 37° C. and read for the presence/absence of growth at 24 hours.
This microorganism is representative of natural contaminants in many consumer and industrial applications.

Setting [4] is: component alone, lowest tested concentration giving zero bacterial survival after 15 s, upper boundary, read-out: Minimum biocidal concentration (MBC).

`CCC(C)c1ccc(O)cc1` (stereo not shown) [4-sec-butylphenol]: the MBC in experiment [1] (setting [4]) was 800 mg/L (≈ 5.33 mM). Besides, the “antimicrobial action in combination with terpineol in the presence of surfactant (in words)” value (from here on “antimicrobial action in combination”) in experiment [2] is given as “enhanced antimicrobial action”.
As for `CCCc1ccccc1O` [2-n-propylphenol], the “MBC of first component alone (MBCA; Ca at Cb = 0)” value (“MBC of first component alone” for short) in experiment [3] is on record as 0.3 weight %. Besides, in experiment [2], the “antimicrobial action in combination” value is given as “enhanced antimicrobial action”.
Take `CCCCCc1ccc(O)cc1` [4-pentylphenol]: the MBC in experiment [1] (setting [4]) is 250 mg/L (≈ 1.52 mM); in experiment [2] it was over 2000 mg/L. For the same compound, the “MBC of first component alone” value in experiment [3] came to 1.0 weight %.
Take `Oc1ccccc1C1CCCC1` [2-cyclopentylphenol]: the MBC is 1000 mg/L (≈ 6.16 mM) in experiment [1] (setting [4]) and over 2000 mg/L in experiment [2]. Further, the “MBC of first component alone” value in experiment [3] came to 0.8 weight %. In addition, in experiment [2], the “antimicrobial action in combination” value was “enhanced antimicrobial action”.
Turning to `Oc1ccccc1Cc1ccccc1` [2-benzylphenol], the MBC in experiment [1] (setting [4]) turned out to be 500 mg/L (≈ 2.71 mM). The “MBC of first component alone” value in experiment [3] is reported as 0.6 weight %. Also, in experiment [2], the MBC was over 2000 mg/L and the “antimicrobial action in combination” value is “enhanced antimicrobial action”.
Regarding `Oc1ccc(C2CCCC2)cc1` [4-cyclopentylphenol], the MBC was 800 mg/L (≈ 4.93 mM) in experiment [1] (setting [4]) and over 2000 mg/L in experiment [2]. Besides, the “MBC of first component alone” value in experiment [3] is given as 0.6 weight %.
As for `CC(C)(C)c1cccc(O)c1` [3-tert-butylphenol], the MBC in experiment [1] (setting [4]) was 800 mg/L (≈ 5.33 mM). Also, in experiment [2], the “antimicrobial action in combination” value was “enhanced antimicrobial action”.
With `C/C=C/c1ccccc1O` [(E)-2-(prop-1-enyl)phenol], the MBC in experiment [1] (read-out: Minimum biocidal concentration (MBC)) was determined as 1500 mg/L (≈ 11.2 mM). Moreover, the “antimicrobial action in combination” value in experiment [2] was “enhanced antimicrobial action”.
With `CC(C)(C)c1ccc(O)cc1` [4-tert-butylphenol], the “antimicrobial action in combination” value in experiment [2] was “enhanced antimicrobial action”.
Consider `CCC(C)c1ccccc1O` (stereo not shown) [2-sec-butylphenol], for which, in experiment [1] (setting [4]), the MBC was found to be 500 mg/L (≈ 3.33 mM). In addition, the “MBC of first component alone” value in experiment [3] came out at 0.2 weight %. Besides, in experiment [2], the MBC was over 2000 mg/L and the “antimicrobial action in combination” value was “enhanced antimicrobial action”.
Turning to `Oc1cccc(-c2ccccc2)c1` [3-phenylphenol], the MBC in experiment [1] (read-out: Minimum biocidal concentration (MBC), component alone, lowest tested concentration giving zero bacterial survival after 15 s, upper boundary) was at least 1250 mg/L. In addition, the “antimicrobial action in combination” value in experiment [2] was “enhanced antimicrobial action”.
`CCCCc1ccc(O)cc1` [4-n-butylphenol]: in experiment [1] (setting [4]), the MBC amounted to 250 mg/L (≈ 1.66 mM). Besides, in experiment [2], the “antimicrobial action in combination” value is on record as “enhanced antimicrobial action”.
As to `CCCc1ccc(O)cc1` [4-n-propylphenol], in experiment [1] (setting [4]), the MBC stood at 750 mg/L (≈ 5.51 mM). Also, the “MBC of first component alone” value in experiment [3] is 0.3 weight %. In addition, the “antimicrobial action in combination” value in experiment [2] was “enhanced antimicrobial action”.
As for `Oc1ccc(Cc2ccccc2)cc1` [4-benzylphenol], the MBC in experiment [1] (setting [4]) amounted to 500 mg/L (≈ 2.71 mM). The “MBC of first component alone” value in experiment [3] is on record as 0.5 weight %. For the same compound, in experiment [2], the MBC is over 2000 mg/L and the “antimicrobial action in combination” value is “enhanced antimicrobial action”.
As for `CC1=CCC(C(C)(C)O)CC1` (stereo not drawn) [alpha-terpineol], the “MBC of second component (terpineol) alone (MBCB; Cb at Ca = 0)” value in experiment [3] worked out at 0.6 weight %.
With `CCCc1cccc(O)c1` [3-n-propylphenol], in experiment [3], the “MBC of first component alone” value came to 0.05 weight %. Further, in experiment [2], the MBC turned out to be 1750 mg/L and the “antimicrobial action in combination” value is given as “enhanced antimicrobial action”.
Consider `CC(C)(C)c1ccccc1O` [2-tert-butylphenol], for which the MBC in experiment [1] (setting [4]) amounted to 500 mg/L (≈ 3.33 mM); in experiment [2], 1750 mg/L. In addition, the “MBC of first component alone” value in experiment [3] came out at 0.2 weight %. Also, in experiment [2], the “antimicrobial action in combination” value was “enhanced antimicrobial action”.
Consider `CC1=CCC(C(C)(C)O)CC1` (stereo not drawn) [1:5, alpha-terpineol], for which the “NMBS, mean bacterial survival” value in experiment [1] turned out to be 0 log CFU/ml.
Turning to `C/C=C/c1ccccc1O` [1:38, (E)-2-(prop-1-enyl)phenol], the “NMBS, mean bacterial survival” value in experiment [1] is 0 log CFU/ml.
The same measure, in the same setting: then `CCC(C)c1ccc(O)cc1` (stereo not shown) [1:29, 4-sec-butylphenol], with 7.6 log CFU/ml.
